In patent US20210317111A1, “NOVEL MEDICAMENT FOR TREATING INFLAMMATORY BOWEL DISEASE” (OTSUKA PHARMACEUTICAL CO., LTD., priority 2018, published 2021):
≈ marks a conversion by molar mass, not a printed value.

Columns and labels:
TNF-α production = assay: inhibition of LPS-induced TNF-α production in human peripheral blood (ELISA); assay type: cell-based; details: human peripheral blood, 24 hours; for inhibitory activity for TNF-α production over concentration range: 1, 3, 10, 30, 100 μM
Protocol: The LPS solution which was adjusted to 2 μg/mL with RPMI 1640 medium was added to 48-well plate in the amount of 250 μL/well. The each diluted solution of each test compound and the diluted solution of the solvent control were added to 3 wells for each concentration in the amount of 50 μL/well, 4-fold diluted solution of human peripheral blood was added to each well (200 μL/well), and the wells were incubated at 37° C. in 5% CO2 for 24 hours. As LPS (−) control, RPMI 1640 medium without added LPS was prepared in the same manner. The final concentrations of each test sample were adjusted to 0, 1, 3, 10, 30, and 100 μM, and the final concentration of prednisolone was adjusted to 0.3 μM. 24 hours later from the incubation, each supernatant was collected and stored at −80° C. until the measurement of the TNF-α concentration.
The TNF-α concentration was measured by ELISA with Human TNF-alpha Quantikine ELISA Kit (R & D Systems). Each sample was unfrozen at room temperature, and diluted with Calibrator Diluent RD6-35 (1×) of the kit by 10-fold. The 10-fold diluted supernatant and the TNF-α standard solution were added on TNF-α microplate, and reacted according to the operating manual of the kit. After the coloring, the absorbance at wave length of 450 nm was measured with a microplate reader (Multiskan FC; Thermo Fisher […]), and the calibration curve was prepared with an analysis software (Skanit Software 3.1.0.4 RE for Multiskan FC (ja)) to read the TNF-α concentration of each sample. Calibration curve used a 4-parameter logistic curve.
The inhibition rates were presented as the mean±standard deviation using Microsoft Excel 2010. For each blood donor, the TNF-α production rate under each compound concentration was calculated with the TNF-α concentration in the supernatant of the solvent group as 100%.
The results are averages of the measurements obtained from the human peripheral blood of three volunteers.

[1] = test system: Mycobacterium avium subspecies paratuberculosis (MAP); assay: antibacterial activity (MIC), broth microdilution method; assay type: cell-based; details: 336 h
Protocol: The chronic enterocolitis of ruminants which is caused by Mycobacterium avium subspecies paratuberculosis (MAP) is similar to Crohn's disease. […] Thus, the antibacterial activity of the present compound against MAP was evaluated. The used comparative drugs for the present compound were rifaximin (RFX), ciprofloxacin (CPFX), metronidazole (MTZ), clarithromycin (CAM), rifabutin (RBT), and clofazimine (CFZ).
The antibacterial activity (minimum inhibitory concentration (MIC)) was assayed by broth microdilution method which is based on Clinical and laboratory standards institute (CLSI).
The 5 strains of MAP were inoculated onto Middlebrook 7H9 agar containing 10% dubos oleic albumin complex (OADC), Tween 80 (0.5 g/L), mycobactin J (2 mg/L), and 1.5% agar, and pre-cultured at 37° C. under an aerobic condition for 14 days. After the pre-culture, the bacterial cell was scraped out from the agar, and prepared to the turbidity of 0.5 Mcfarland standard using Middlebrook 7H9 broth containing 10% dubos oleic albumin complex (OADC), Tween 80 (0.5 g/L), and mycobactin J (2 mg/L)]. The 10-fold diluted solution of the bacterial suspension was inoculated onto Middlebrook 7H9 broth 96-well plate which contains the present compound or any one of the comparative drugs, and incubated at 37° C. under an aerobic condition for 14 days.
After the incubation, the bacterial growth in each well of the 96-well plate was visually checked. The minimum concentration at which the bacterial growth was not observed, compared with the result of the well containing neither present compound nor comparative drug was determined as MIC of the present compound or each comparative drug against each test bacterium.

[2] = test system: naive T cell transfer model of colitis; assay: naive T cell transfer model of colitis (Crohn's disease mouse model), histological scoring of large intestine; assay type: in vivo; details: from 2nd week after transplantation for 2 weeks; present compound, CPFX, RFX oral once a day 10 mg/kg; antibody 25 mg/kg i.p. twice a week; 4th week
Source text: From spleen of Balb/c mouse, naive T cell (CD4+CD62L+CD44−) was isolated with antibody-coated magnetic beads. The isolated naive T cell (5×10^5 cells/mouse) was transplanted in abdominal cavity of SCID mouse which is a severe combined immunodeficiency animal. The present compound was orally administered to the mouse once a day at each dose defined in Table 1 below, from the first day of the transplantation for Test 1, or from the 2nd week after the transplantation for Test 2, until 5 weeks after the transplantation. [table] […] The anti-TNF-α antibody was intraperitoneally administered to the mouse twice a week at each dose defined in Table 2 below, from the 2nd week after the transplantation, for 2 weeks. [table] At 5th week for Tests 1 and 2, and at 4th week for Test 3, the large intestine was removed, and the length and weight of the large intestine were measured. In addition, the large intestine was fixed with formalin to carry out pathological analysis. From the removed large intestine, the anus part, the center part, and the cecal part were cut out each in about 0.5 cm, and each part was fixed with formalin. The paraffin block thereof was prepared, sliced, and subjected to H&E staining. The H&E stained slice was examined with a microscope to score it histologically. The histological scoring was carried out by scoring the inflammatory cell infiltrate, the Goblet cell loss, and the hyperplasia of mucosal epithelium, based on the standard (0-4) defined in Table 3 below. [table]

Fusobacterium spp. = assay: antibacterial activity (MIC), agar plate dilution method; assay type: cell-based; details: 17 strains of Fusobacterium spp.; anaerobic, 37° C.
Protocol: There are plural reports about the relationship between intestinal bacteria and inflammatory bowel disease, and it is thought that Fusobacterium spp., one of the intestinal bacteria is a pathogenic bacteria causing inflammatory bowel disease. […] The antibacterial activity (minimum inhibitory concentration (MIC)) was assayed by agar plate dilution method which is based on Clinical and laboratory standards institute (CLSI). The medium used herein was Brucella medium with sheep blood. […] The bacterial suspension was inoculated onto Brucella agar with sheep blood which contains the present compound or any one of the comparative drugs, and incubated at 37° C. under an anaerobic condition.

TNBS-induced enteritis = TNBS-induced enteritis model; assay type: in vivo, rat; details: 100 mg/kg orally twice a day; 12 rats per group
Protocol: An enteritis animal model induced with 2,4,6-trinitrobenzenesulfonic acid (TNBS) is widely used as Crohn's disease model since the inflammatory finding is pathologically similar to that of human Crohn's disease. In addition, the enteritis model was used in the non-clinical study of mesalazine that is a medicament for treating Crohn's disease. Thus, this enteritis model was used as Crohn's disease model for evaluating the present compound.
Rats were made to be fasted for 24 or 48 hours, and the body weight were measured. The rats were laparotomized under isoflurane anesthesia, and 50% ethanol (0.25 mL) containing 60 mg/mL 2,4,6-trinitrobenzenesulfonic acid (TNBS) was injected into the large intestine from the cecum side toward the anal side to induce the injury. Each group composed of 12 rats was set, and vehicle, the present compound, or salazosulfapyridine (SASP) which is an already-existing drug for treating inflammatory bowel disease were administered for 7 days from the first day after the injection of TNBS. On the 8th day, each rat was laparotomized under anesthesia and killed by exsanguination. The large intestine was removed from the anus to the cecum, the large intestine was longitudinally incised, and the incised large intestine was washed with a cold saline. The lesion area of the large intestine was photographed with a digital camera. The area of the lesion area in the photograph of the large intestine was measured using image analyzing program.
Each compound was orally administered at a dose of 100 mg/kg twice a day from one day after inducing enteritis with TNBS. Each area of the lesion area on the 8th day was compared.

DSS-induced colitis = DSS-induced colitis model, stool scores; assay type: in vivo, rat
Source text: A colitis model induced by dextran sulfate sodium (DSS) is widely used as an experimental ulcerative colitis model having similarities of human ulcerative colitis regarding suppression of weight gain, colitis symptoms such as bloody stools and diarrhea, and injury formation in the large intestine. The effect of the present compound on the ulcerative colitis model was examined, and it was compared with salazosulfapyridine (SASP) clinically used as a therapeutic agent for ulcerative colitis.
Symptoms of colitis were induced by allowing rats to freely drink 3% dextran sulfate sodium (DSS) solution for 10 days. […] For the observation of stool symptoms, the degree of stool condition was scored as the score of stool firmness (Stool Consistency Score: 0, 1, 2, 3) and blood stool (Bloody Stool Score: 0, 1, 2, 3). The total of Stool Consistency Score and Bloody Stool Score was taken as the Total Stool Score. Each group was composed of 8 animals. Salazosulfapyridine (SASP), which is an already-existing drug for treating inflammatory bowel disease, the present compound or the vehicle were administrated for 10 days from the start date of 3% DSS freely drinking.

[3] = 11th day, present compound 1, 3, 10 mg/kg (P<0.01) or SASP 100 mg/kg (P<0.05) orally twice a day, Dunnett's test

For Nc1ccc(O)c(C(=O)O)c1 [5-ASA, 5-aminosalicylic acid], the “inhibitory activity for TNF-α production over concentration range” value (TNF-α production) was “no inhibitory activity”.

With CC[C@H]1OC(=O)[C@H](C)[C@@H](O[C@H]2C[C@@](C)(OC)[C@@H](O)[C@H](C)O2)[C@H](C)[C@@H](O[C@@H]2O[C@H](C)C[C@H](N(C)C)[C@H]2O)[C@](C)(OC)C[C@@H](C)C(=O)[C@H](C)[C@@H](O)[C@]1(C)O [CAM, clarithromycin] the MIC [1] was 0.12 to 0.25 µg/mL (≈ 0.16 to 0.334 µM).

CC(C)/N=c1\cc2n(-c3ccc(Cl)cc3)c3ccccc3nc-2cc1Nc1ccc(Cl)cc1 [CFZ, clofazimine] gave an MIC [1] of 0.12 to 0.5 µg/mL (≈ 0.253 to 1.06 µM).

With O=C(O)c1cn(C2CC2)c2cc(N3CCNCC3)c(F)cc2c1=O [CPFX, ciprofloxacin] the “histological score (Test 3, comparative study)” value [2] was “little or no inhibitory effect”, the inhibition at 100 µM (TNF-α production; 100 μM, read-out: inhibitory effect on TNF-α production at 100 μM) was less than 50% and the “inhibitory activity for TNF-α production over concentration range” value (TNF-α production) was “dose-dependent inhibitory effect at a concentration of 30 μM or more”. The MIC (Fusobacterium spp.) was 2 to 8 µg/mL (≈ 6.04 to 24.1 µM) and the MIC [1] was 0.25 to 0.5 µg/mL (≈ 0.754 to 1.51 µM).

Cc1ncc([N+](=O)[O-])n1CCO [MTZ, metronidazole] gave an MIC (Fusobacterium spp.) of 0.03 to 0.5 µg/mL (≈ 0.175 to 2.92 µM) and an MIC [1] greater than 128 µg/mL.

In the case of CO[C@H]1/C=C/O[C@@]2(C)Oc3c(C)c(O)c4c(c3C2=O)C2=NC3(CCN(CC(C)C)CC3)NC2=C(NC(=O)/C(C)=C\C=C\[C@H](C)[C@H](O)[C@@H](C)[C@@H](O)[C@@H](C)[C@H](OC(C)=O)[C@@H]1C)C4=O [RBT, rifabutin], the MIC [1] is reported as 0.25 to 1 µg/mL (≈ 0.295 to 1.18 µM).

In the case of CO[C@H]1/C=C/O[C@@]2(C)Oc3c(C)c(O)c4c(O)c(c5c(nc6cc(C)ccn65)c4c3C2=O)NC(=O)/C(C)=C\C=C\[C@H](C)[C@H](O)[C@@H](C)[C@@H](O)[C@@H](C)[C@H](OC(C)=O)[C@@H]1C [RFX, rifaximin], the “histological score (Test 3, comparative study)” value [2] is reported as “little or no inhibitory effect”, the “inhibitory activity for TNF-α production over concentration range” value (TNF-α production) is reported as “no inhibitory activity” and the MIC [1] is reported as 1 to 2 µg/mL (≈ 1.27 to 2.54 µM).

In the case of O=C(O)c1cc(/N=N/c2ccc(S(=O)(=O)Nc3ccccn3)cc2)ccc1O [SASP, salazosulfapyridine, reference compound], the “number of death during the treatment” value (TNBS-induced enteritis) is reported as “two”, the “day from which suppression of stool score deterioration was observed” value (DSS-induced colitis; 100 mg/kg orally twice a day) is reported as “from the 9th day” and the deaths (DSS-induced colitis; 100 mg/kg orally twice a day, 8 animals per group) is reported as 2. The “bloody stool score vs vehicle control” value (DSS-induced colitis; 11th day, present compound 1 mg/kg (P<0.05), 3, 10 mg/kg (P<0.01) or SASP 100 mg/kg orally twice a day, Dunnett's test) was “not significant”, the “stool firmness (Stool Consistency Score) vs vehicle control” value (DSS-induced colitis; [3]) was “significant differences” and the “total stool score vs vehicle control” value (DSS-induced colitis; [3]) was “significant differences”.
